Assay results reported in paper PMC9481570, “A small molecule antagonist of SMN disrupts the interaction between SMN and RNAP II” (Nature Communications, 2022).

Experiments:
ZGPAT = target: T1, ZGPAT (Homo sapiens, UniProt Q8N5A5); assay: ITC binding to ZGPAT; conditions: Fig. 1c
T1 construct: ZGPAT (aa 120–271); His (N, cleaved yes); made in house; host or cells: E. coli BL21 (DE3) Codon plus RIL
Source text: (§1) The coding DNA fragments of following Tudor domains were cloned into pET28-MHL vector: SMN (aa 82–147), UHRF1 (aa 126–285), SMNDC1 (aa 53–130), TDRD3 (aa 554–611), SND1 (aa 650–910), TDRD2 (aa 327–420), FXR1 (aa 2–132), PHF1 (aa 28–87), SGF29 (aa 115–293), JMJD2A (aa 897–1101), 53BP1 (aa 1483–1606), SETDB1 (aa 190–410), LBR (aa 1–67), ZGPAT (aa 120–271). The coding regions of chromodomain of CBX7 (aa 8–62), PWWP domain of DNMT3A (aa 275–417), WD40 repeats of WDR5 (aa 24–334) and CW domain of ZCWPW2 (aa 21–78) were also subcloned into pET28-MHL vector to generate N-terminally His-tagged fusion protein. The MBT repeats of L3MBTL1 (aa 200–522) and L3MBTL2 (aa 170–625) were subcloned into pET28GST-LIC vector to generate N-terminally GST-His-tagged fusion protein. All the plasmids were generated by ligase independent cloning (Vazyme Biotech, C112 or ABclonal Technology, RK21020). […] The molecular weight of all protein samples was measured by mass spectrometry.
(§2) For the ITC measurement, the concentrated proteins were diluted into 20 mM Tris-HCl, pH 7.5, 150 mM NaCl (ITC buffer); the lyophilized compounds were dissolved in the same buffer, and the pH value was adjusted by adding 2 M NaOH or 2 M HCl. […] Compound concentrations were calculated from the mass and the volume of the solvent. […]

WDR5 (WD40) = target: T2, WDR5 (WD40) (Homo sapiens, UniProt P61964); assay: ITC binding to WD40 repeats of WDR5; conditions: Fig. 1c
T2 construct: WDR5 (aa 24–334); His (N, cleaved yes); made in house; host or cells: E. coli BL21 (DE3) Codon plus RIL
Source text: as §1, §2

SMN_Y109A = target: T3, SMN_Y109A (Homo sapiens, UniProt Q16637, Y109A); assay: ITC binding to SMN Tudor mutant Y109A; conditions: Fig. 3d
T3 construct: SMN (aa 82–147); His (N, cleaved yes); made in house; host or cells: E. coli BL21 (DE3) Codon plus RIL
T3 sequence (Q16637 82-147 Y109A): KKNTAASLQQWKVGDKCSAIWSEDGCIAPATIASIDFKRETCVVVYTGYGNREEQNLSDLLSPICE
Source text: as §1, §2

[1] = Solubility of the hit compound; assay type: physicochemical
Method: Screen Format 384-well black plates (Greiner, 784290)
Concentration(s) tested 2 mM compound with 2% DMSO (final concentration), 40 nM FITC-labeled H3K9me3 peptide, 8 μM tandem
Tudor domain of UHRF1 protein
Plate controls Background: FITC-labeled peptide only; negative control: FITC-labeled peptide and protein; positive control: FITC-labeled peptide and protein plus unlabeled H3K9me3 peptide
Reagent/ compound dispensing system Agilent Bravo robot
Detection instrument and software Synergy 4 microplate reader (BioTek), GraphPad […]
Assay validation/QC Z’ factor = 0.8
Correction factors Background value
Normalization All the digital values of fluorescence polarization signal subtract the background signal value.
Additional comments High concentrations (>2.5%) of DMSO might affect peptide binding and signal-to-noise ratios
Post-HTS analysis Hit criteria The signal of negative control was set as 100%. When the signal of sample was less than 50% of negative control, it was taken as hit.
Additional assay(s) The hits were further confirmed by dose response analysis with 1 mM as the highest concentration of the hits and 11 serial dilutions by 2 times, and then by isothermal titration calorimetry assay.
Confirmation of hit purity and structure The compound was repurchased (Specs, ID: AG- […]

T1 sequence (Q8N5A5 120-271): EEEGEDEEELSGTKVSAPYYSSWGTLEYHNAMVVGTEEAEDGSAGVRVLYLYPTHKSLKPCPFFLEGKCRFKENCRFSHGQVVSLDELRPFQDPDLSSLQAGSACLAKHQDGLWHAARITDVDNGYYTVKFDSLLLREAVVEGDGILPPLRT

Cn1c2c(c(=N)c3c1CCC3)CCC2 [Compound 1, 4-methyl-2,3,4,5,6,7-hexahydrodicyclopenta[b,e]pyridin-8(1H)-imine]
Kd (ZGPAT): > 244 µM | Kd (WDR5 (WD40)): > 244 µM | Kd (SMN_Y109A): 15 ± 1 µM | concentration dissolved in DMSO ([1]; DMSO): 100 mM | solubility in buffer at high concentration ([1]; buffer): but not in buffer
